pIC50: −log10 of the molar value.

In general, pIC50 refers to the negative decadic logarithm of the IC50, by convention in mol/L. By amount remaining is commonly meant what is left of the initial amount, in per cent. Read a high amount remaining as less turnover. For orientation: melting point means the temperature of the solid-liquid transition.

One series addresses T1, human sEH (Homo sapiens, UniProt P34913).
T1 construct: made in house; host or cells: baculovirus expression system (insect cells implied)
T1 sequence (P34913 1-555): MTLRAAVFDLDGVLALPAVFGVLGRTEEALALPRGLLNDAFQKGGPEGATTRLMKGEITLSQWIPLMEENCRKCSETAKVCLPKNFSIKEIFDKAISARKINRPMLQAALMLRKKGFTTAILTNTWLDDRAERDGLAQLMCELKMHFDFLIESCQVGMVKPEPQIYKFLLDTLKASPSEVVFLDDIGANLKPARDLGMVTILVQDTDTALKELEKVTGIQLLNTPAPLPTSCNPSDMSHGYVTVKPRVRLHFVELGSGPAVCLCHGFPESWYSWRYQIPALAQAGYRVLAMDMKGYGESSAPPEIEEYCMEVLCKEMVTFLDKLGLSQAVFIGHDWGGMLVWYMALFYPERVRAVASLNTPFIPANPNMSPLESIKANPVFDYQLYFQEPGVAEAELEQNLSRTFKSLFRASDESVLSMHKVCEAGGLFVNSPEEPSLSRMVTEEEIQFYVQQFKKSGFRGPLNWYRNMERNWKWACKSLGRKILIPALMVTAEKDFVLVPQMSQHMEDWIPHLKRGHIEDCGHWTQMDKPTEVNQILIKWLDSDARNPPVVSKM
Briefly: fluorescent-based sEH inhibition assay, recombinant human sEH. It is filed as biochemical. To be noted: baculovirus expressed recombinant human sEH, average of three replicates. As to the method: (§1) The potency of all the new compounds as inhibitors of the human and murine sEH was tested using a previously reported sensitive fluorescent-based assay using baculovirus expressed recombinant human and mouse sEH [28].

The target of the next series is T2, murine sEH (Mus musculus, UniProt P34914).
T2 construct: made in house; host or cells: baculovirus expression system (insect cells implied)
T2 sequence (P34914 1-554): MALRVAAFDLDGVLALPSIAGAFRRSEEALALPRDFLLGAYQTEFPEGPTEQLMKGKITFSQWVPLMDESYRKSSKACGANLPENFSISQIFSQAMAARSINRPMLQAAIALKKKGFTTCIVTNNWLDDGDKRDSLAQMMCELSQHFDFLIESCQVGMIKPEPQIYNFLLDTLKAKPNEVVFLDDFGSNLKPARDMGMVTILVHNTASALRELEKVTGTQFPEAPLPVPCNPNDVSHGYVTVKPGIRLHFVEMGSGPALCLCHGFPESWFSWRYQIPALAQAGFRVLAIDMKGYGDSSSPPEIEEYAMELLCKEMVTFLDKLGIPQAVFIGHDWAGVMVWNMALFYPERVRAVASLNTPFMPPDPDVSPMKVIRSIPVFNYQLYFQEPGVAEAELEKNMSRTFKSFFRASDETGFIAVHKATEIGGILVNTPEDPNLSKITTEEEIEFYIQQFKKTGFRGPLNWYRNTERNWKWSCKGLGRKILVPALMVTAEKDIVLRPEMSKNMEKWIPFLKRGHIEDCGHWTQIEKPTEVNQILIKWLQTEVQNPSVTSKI
Kind of series: fluorescent-based sEH inhibition assay, recombinant mouse sEH. It is filed as biochemical. As to conditions: baculovirus expressed recombinant mouse sEH, average of three replicates. How it is done: as §1

Series [1] in a line: microsomal stability, human microsomes. As to conditions: pooled human microsomes, pH 7.4; 60 min incubation with human microsomes, NADPH, 37 °C. Format: in vitro ADME. How it is done:
(§2) The human and murine pooled microsomes employed were purchased from Tebu-Xenotech (Barcelona, Spain). The compound was incubated at 37 °C with the microsomes in a 50 mM phosphate buffer (pH = 7.4) containing 3 mM MgCl2, 1 mM NADP, 10 mM glucose-6-phosphate and 1 U/mL glucose-6-phosphate-dehydrogenase. Samples (75 µL) were taken from each well at 0, 10, 20, 40 and 60 min and transferred to a plate containing 4 °C 75 µL acetonitrile and 30 µL of 0.5% formic acid in water were added for improving the chromatographic conditions. The plate was centrifuged (46000 g, 30 min) and supernatants were taken and analyzed in a UPLC-MS/MS (Xevo-TQD, Waters) by employing a BEH C18 column and an isocratic gradient of 0.1% formic acid in water: 0.1% formic acid acetonitrile (60:40). The metabolic stability of the compounds was calculated from the logarithm of the remaining compounds at each of the time points studied.

The nature of series [2]: microsomal stability, mouse microsomes. It is filed as in vitro ADME. As to conditions: pooled murine microsomes, pH 7.4; 60 min incubation with mouse microsomes, NADPH, 37 °C. As to the method:
as §2

On the set-up of series [3]: method as in PMID 33945278. To be noted: Figure 2 legend; cited from earlier work.
For series [4], the system named is microglial BV2 cells activated with LPS. Briefly: nitric oxide generation (nitrite, Griess) in LPS-activated BV2 microglial cells. Format: cell-based. To be noted: compound at 100 µM, LPS, 24 h, percentage of LPS value. How it is done: Inflammatory changes were determined by the measure of nitric oxide generation, as the endpoint of iNOS activation, in microglial BV2 cells. BV2 cells (HyperCLDB, Banca Biologica e Cell Factory, ICLC ATL 03001) were grown in RPMI 1640 medium, supplemented with L-glutamine 2 mM, gentamycin 50 µM and 10% FBS. For experiments, cells were seeded in 96-well plates at 2 × 10^5 cells/mL, 100 µL/well. […] After 1 h of incubation, the cells were treated with the pro-inflammatory chemical LPS (0.1 μg/mL or 1 μg/mL; strain E. coli […], Sigma-Aldrich, L-2654, batch #120M4028) and further incubated for 24 h. TPPU at 100 µM was also assayed as a reference anti-inflammatory compound. DMSO 0.1% was used as vehicle. Cells were maintained at 37 °C in a humidified incubator with 5% CO2 throughout the procedures. Nitric oxide released to the culture medium was measured by the colorimetric Griess reaction that detects nitrite (NO2^–), a stable reaction product of nitric oxide and molecular oxygen. Briefly, 50 µL of conditioned medium were incubated with 50 µL of Griess reagent for 10 min at room temperature. Optical density was measured at 540 nm. Nitrite concentration was determined from a sodium nitrite standard curve. Results were normalized by cell protein content in the well and expressed as a percentage of the average maximal values given by the pro-inflammatory agent (LPS 1 µg/mL). Each treatment was performed in 3–5 wells and the whole experiment was repeated 3–4 times in cultures of different cell passage. Data were analyzed by ANOVA followed by Tukey’s multiple comparisons test.
On the technique in general: Griess reagent forms a coloured azo dye with nitrite.

For `O=C(CC1CCN(c2ccc(C(=O)O)cc2C2CC2)CC1)NC12CC3CC(F)(CC(C1)c1ccccc13)C2` [10d, 3-Cyclopropyl-4-(4-(2-((9-fluoro-5,6,8,9,10,11-hexahydro-7H-5,9:7,11-dimethanobenzo[9]annulen-7-yl)amino)-2-oxoethyl)piperidin-1-yl)benzoic Acid], the melting point was in the range of 190 to 191 °C. Further, the pIC50 on human sEH was 9.40. Also, the pIC50 at murine sEH was 9.70. Further, the fraction remaining at 1 h in series [1] was found to be 11%. In addition, in series [2], the fraction remaining at 1 h is 2%.
Consider `O=C(CC1CCN(c2ccc(C(=O)O)cc2)CC1)NC12CC3CC(Cl)(CC(C1)c1ccccc13)C2` [10e], for which the pIC50 at human sEH was 8.77; on murine sEH, 9.15. In addition, the share remaining at 1 h in series [1] worked out at 52%; in series [2] it was 6%.
Take `CC(C)S(=O)(=O)N1CCC(CC(=O)NC23CC4CC(F)(CC(C2)c2ccccc24)C3)CC1` [6c, N-(9-Fluoro-5,6,8,9,10,11-hexahydro-7H-5,9:7,11-dimethanobenzo[9]annulen-7-yl)-2-(1-(isopropylsulfonyl)piperidin-4-yl)acetamide]: the melting point lay in the range of 192 to 193 °C. Besides, on human sEH, the pIC50 is 8.80. On murine sEH, the pIC50 is 9.40. In series [1], the share remaining at 1 h was found to be 5.5%. This compound had a share remaining at 1 h in series [2] of 5.1%.
For `N#Cc1ccc(N2CCC(CC(=O)NC34CC5CC(F)(CC(C3)c3ccccc35)C4)CC2)cc1` [10b, 2-(1-(4-Cyanophenyl)piperidin-4-yl)-N-(9-fluoro-5,6,8,9,10,11-hexahydro-7H-5,9:7,11-dimethanobenzo[9]annulen-7-yl)acetamide] the same measures were 180 to 181 °C, 8.47, 9.40, 0% and 0.1%.
On to `CC12CC3CC(NC(=O)CC4CCN(Cc5ccccc5)CC4)(CC(C1)c1ccccc13)C2` [6g, 2-(1-Benzylpiperidin-4-yl)-N-(9-methyl-5,6,8,9,10,11-hexahydro-7H-5,9:7,11-dimethanobenzo[9]annulen-7-yl)acetamide], for which the pIC50 was 7.43 on human sEH and 8.48 at murine sEH. The share remaining at 1 h in series [1] and in series [2] was 0.1% each time.
With `CC(C)S(=O)(=O)N1CCC(CC(=O)NC23CC4CC(C2)c2ccccc2C(C4)C3)CC1` [6e, N-(5,6,8,9,10,11-Hexahydro-7H-5,9:7,11-dimethanobenzo[9]annulen-7-yl)-2-(1-(isopropylsulfonyl)piperidin-4-yl)acetamide], the melting point is 136 to 137 °C. Moreover, at human sEH, the pIC50 is 8.55. For the same compound, the pIC50 at murine sEH is 9.30. Besides, in series [1], the fraction remaining at 1 h stood at 0.6%. In series [2], this compound displayed a share remaining at 1 h of 0.2%.
In the case of `CC(=O)N1CCC(NC(=O)NC23CC4CC(C)(CC(C2)c2ccccc24)C3)CC1` [compound 1, reference compound], the fraction remaining at 1 h in series [1] and in series [2] was 1% each time. For the same compound, the “microsomal stability (% remaining at 1 h) mouse” value in series [3] is on record as 0.5%.
The compound `CC(C)S(=O)(=O)N1CCC(CC(=O)NC23CC4CC(Cl)(CC(C2)c2ccccc24)C3)CC1` [6d, N-(9-Chloro-5,6,8,9,10,11-hexahydro-7H-5,9:7,11-dimethanobenzo[9]annulen-7-yl)-2-(1-(isopropylsulfonyl)piperidin-4-yl)acetamide] returned a melting point of 163 to 164 °C. Also, on human sEH, the pIC50 is 9.00. On murine sEH, the pIC50 is 9.40. In series [1], this compound came in with an amount remaining at 1 h of 7%. The fraction remaining at 1 h in series [2] turned out to be 1.4%.
As to `CC(=O)N1CCC(CC(=O)NC23CC4CC(C)(CC(C2)c2ccccc24)C3)CC1` [6a, 2-(1-Acetylpiperidin-4-yl)-N-(9-methyl-5,6,8,9,10,11-hexahydro-7H-5,9:7,11-dimethanobenzo[9]annulen-7-yl)acetamide], the pIC50 on human sEH is 7.46; at murine sEH it was 9.40. Besides, the share remaining at 1 h worked out at 0.3% in series [1] and 0% in series [2].
The corresponding values for `CC(C)S(=O)(=O)N1CCC(CC(=O)NC23CC4CC(C)(CC(C2)c2ccccc24)C3)CC1` [6b, 2-[1-(Isopropylsulfonyl)piperidin-4-yl]-N-(9-methyl-5,6,8,9,10,11-hexahydro-7H-5,9:7,11-dimethanobenzo[9]annulen-7-yl)acetamide] are 7.52, 9.40, 0% and 0%.
`O=C(CC1CCN(Cc2ccccc2)CC1)NC12CC3CC(F)(CC(C1)c1ccccc13)C2` [6h, 2-(1-Benzylpiperidin-4-yl)-N-(9-fluoro-5,6,8,9,10,11-hexahydro-7H-5,9:7,11-dimethanobenzo[9]annulen-7-yl)acetamide] gave a melting point of 164 to 165 °C. Moreover, the pIC50 at human sEH was 7.67. Moreover, the pIC50 at murine sEH was 7.89. In series [1], the fraction remaining at 1 h came out at 0.3%. In series [2], this compound gave a fraction remaining at 1 h of 0.1%.
Compound `CC(=O)c1ccc(N2CCC(CC(=O)NC34CC5CC(F)(CC(C3)c3ccccc35)C4)CC2)cc1` [10a, 2-(1-(4-Acetylphenyl)piperidin-4-yl)-N-(9-fluoro-5,6,8,9,10,11-hexahydro-7H-5,9:7,11-dimethanobenzo[9]annulen-7-yl)acetamide] registered a melting point of 229 to 230 °C. The pIC50 at human sEH is 9.22. Also, the pIC50 at murine sEH is 9.15. Further, the amount remaining at 1 h in series [1] was 0.1%. This compound returned a share remaining at 1 h in series [2] of 0.1%.
`CCC(=O)N1CCC(NC(=O)Nc2ccc(OC(F)(F)F)cc2)CC1` [TPPU, reference compound]: in series [4], the “nitric oxide release induced by LPS, reduced to” value is listed as “approximately 50%”.
In turn, `[2H]C12CC3CC(NC(=O)CC4CCN(S(=O)(=O)C(C)C)CC4)(CC(C1)c1ccccc13)C2` [6f, N-(5,6,8,9,10,11-Hexahydro-7H-5,9:7,11-dimethanobenzo[9]annulen-7-yl-9-d)-2-(1-(isopropylsulfonyl)piperidin-4-yl)acetamide] had a melting point of 138 to 139 °C. Further, the negative-log IC50 (pIC50) on human sEH is 8.62. Besides, the pIC50 on murine sEH was 9.40. In series [1], this compound came in with an amount remaining at 1 h of 1.3%. In series [2], the fraction remaining at 1 h stood at 0.5%.
